This note sets out measurements from ChEMBL document CHEMBL1146119, “Amino functionalized novel cholic acid derivatives induce HIV-1 replication and syncytia formation in T cells” (J Med Chem, 2006).

Activity calls are given as the source filed them. The calls are words filed in the database; no cut-off is given here.

The test concerns Human immunodeficiency virus 1. The test is described as follows: Induction of HIV1 NL4-3 virus replication in CEM-GFP cells. Format: functional, organism-based.
For `COC(=O)CC[C@@H](C)[C@H]1CC[C@H]2[C@H]3C(=C(N)C(=O)[C@]12C)[C@@]1(C)CC[C@@H](OC(C)=O)C[C@H]1C[C@H]3OC(C)=O`, the outcome was Active. As to `C[C@H](CCC(=O)O)[C@H]1CC[C@H]2[C@@H]3[C@H](O)C[C@@H]4C[C@H](O)CC[C@]4(C)[C@H]3C[C@H](O)[C@]12C`, the result was inactive. In the case of `COC(=O)CC[C@@H](C)[C@H]1CC[C@H]2[C@@H]3[C@H](OC(C)=O)C[C@@H]4C[C@H](OC(C)=O)CC[C@]4(C)[C@H]3C[C@H](O)[C@]12C` it was “inactive”; in that of `COC(=O)CC[C@@H](C)[C@H]1CC[C@H]2[C@H]3[C@H]([C@@H](N=[N+]=[N-])C(=O)[C@]12C)[C@@]1(C)CC[C@@H](OC(C)=O)C[C@H]1C[C@H]3OC(C)=O`, “Active”. With `COC(=O)CC[C@@H](C)[C@H]1CC[C@H]2[C@H]3[C@H]([C@@H](N)[C@@H](O)[C@]12C)[C@@]1(C)CC[C@@H](OC(C)=O)C[C@H]1C[C@H]3OC(C)=O`, the outcome was Active. The value for `COC(=O)CC[C@@H](C)[C@H]1CC[C@H]2[C@H]3[C@H]([C@H](N=[N+]=[N-])C(=O)[C@]12C)[C@@]1(C)CC[C@@H](OC(C)=O)C[C@H]1C[C@H]3OC(C)=O` was “Active”. With `COC(=O)CC[C@@H](C)[C@H]1CC[C@H]2[C@H]3[C@H]([C@H](N)C(=O)[C@]12C)[C@@]1(C)CC[C@@H](OC(C)=O)C[C@H]1C[C@H]3OC(C)=O`, the outcome was Active. In the case of `COC(=O)CC[C@@H](C)[C@H]1CC[C@H]2[C@H]3[C@H]([C@H](N)[C@H](O)[C@]12C)[C@@]1(C)CC[C@@H](OC(C)=O)C[C@H]1C[C@H]3OC(C)=O` it was “Active”.
